From the NIST ThermoML archive (doi:10.1021/je049943s)

What was measured:
[1] = 101.33 kPa, Liquid
[2] = excess molar enthalpy (molar enthalpy of mixing); xn = mol fraction of the nth substance listed; details: 308.15 K, 101.33 kPa, Liquid

OCCc1ccccc1 [2-phenylethanol]
Details	mass density [kg/m3]
[1], 308.15 K	1008.68

OCCOCCO [diethylene glycol]
[1]
Details	mass density [kg/m3]
298.15 K	1112.38
308.15 K	1105.88

OCCc1ccccc1 [2-phenylethanol] + OCCOCCOCCO
[2]
Details	excess molar enthalpy [kcal/mol]
x2 = 0.036	-0.0244
x2 = 0.0695	-0.0421
x2 = 0.1008	-0.0542
x2 = 0.13	-0.0622
x2 = 0.1832	-0.0713
x2 = 0.2296	-0.0755
x2 = 0.3096	-0.079
x2 = 0.3741	-0.0801
x2 = 0.4728	-0.0805
x2 = 0.5737	-0.0778
x2 = 0.6421	-0.0755
x2 = 0.7346	-0.0676
x2 = 0.782	-0.06
x2 = 0.8433	-0.0473
x2 = 0.8777	-0.0396
x2 = 0.915	-0.0282
x2 = 0.9556	-0.0151

OCCc1ccccc1 [2-phenylethanol] + OCCOCCOCCOCCO
[2]
Details	excess molar enthalpy [kcal/mol]
x2 = 0.0281	-0.0289
x2 = 0.0546	-0.0488
x2 = 0.0797	-0.0614
x2 = 0.1036	-0.0687
x2 = 0.1478	-0.0782
x2 = 0.1878	-0.0817
x2 = 0.2575	-0.0832
x2 = 0.3161	-0.0835
x2 = 0.4095	-0.0859
x2 = 0.5099	-0.0878
x2 = 0.5811	-0.0845
x2 = 0.6754	-0.08
x2 = 0.7351	-0.0724
x2 = 0.8063	-0.0606
x2 = 0.8473	-0.0507
x2 = 0.8928	-0.042
x2 = 0.9433	-0.0258

CC(O)CO (stereo unspecified) [1,2-propanediol]
Details	mass density [kg/m3]
[1], 308.15 K	1026.15

OCCOCCOCCO [triethylene glycol]
[1]
Details	mass density [kg/m3]
298.15 K	1119.78
308.15 K	1112.61

OCCc1ccccc1 [2-phenylethanol] + OCCO
[2]
Details	excess molar enthalpy [kcal/mol]
x2 = 0.0823	0.0254
x2 = 0.1521	0.0386
x2 = 0.212	0.0456
x2 = 0.264	0.0486
x2 = 0.3498	0.0495
x2 = 0.4177	0.0478
x2 = 0.5183	0.0467
x2 = 0.5892	0.0446
x2 = 0.6827	0.0408
x2 = 0.7635	0.036
x2 = 0.8115	0.0313
x2 = 0.8659	0.0257
x2 = 0.8959	0.0214
x2 = 0.9281	0.0168
x2 = 0.9451	0.0134
x2 = 0.9627	0.00989
x2 = 0.981	0.00507

OCCc1ccccc1 [2-phenylethanol] + CC(O)CO
[2]
Details	excess molar enthalpy [kcal/mol]
x2 = 0.0637	0.0251
x2 = 0.1198	0.0403
x2 = 0.1695	0.0483
x2 = 0.2139	0.0548
x2 = 0.2858	0.0599
x2 = 0.3525	0.0608
x2 = 0.4495	0.0582
x2 = 0.5212	0.0576
x2 = 0.6201	0.0539
x2 = 0.7101	0.0509
x2 = 0.7656	0.0473
x2 = 0.8305	0.0397
x2 = 0.8672	0.0339
x2 = 0.9074	0.0266
x2 = 0.9289	0.0212
x2 = 0.9494	0.0158
x2 = 0.9751	0.00853

OCCc1ccccc1 [2-phenylethanol] + OCCOCCO
[2]
Details	excess molar enthalpy [kcal/mol]
x2 = 0.05	-0.0263
x2 = 0.0952	-0.0434
x2 = 0.1363	-0.0541
x2 = 0.1738	-0.0613
x2 = 0.2399	-0.0675
x2 = 0.2961	-0.0721
x2 = 0.3869	-0.0735
x2 = 0.4569	-0.0727
x2 = 0.5579	-0.0712
x2 = 0.6544	-0.0684
x2 = 0.7163	-0.0652
x2 = 0.7911	-0.0577
x2 = 0.8347	-0.0503
x2 = 0.8834	-0.0401
x2 = 0.9099	-0.0355
x2 = 0.9381	-0.0248
x2 = 0.968	-0.0131
